Measured values reported in BindingDB's records for doi:10.1021/acs.jmedchem.8b01153 (2019).

Key:
[1] = target: T1, Induced myeloid leukemia cell differentiation protein Mcl-1 (Homo sapiens, UniProt Q07820); experiment: Binding affinity to MCl-1 (unknown origin) assessed as dissociation rate constant for state two
[2] = target: T1, Induced myeloid leukemia cell differentiation protein Mcl-1; experiment: Binding affinity to MCl-1 (unknown origin) assessed as dissociation rate constant for state one

T1 sequence (Q07820 whole entry): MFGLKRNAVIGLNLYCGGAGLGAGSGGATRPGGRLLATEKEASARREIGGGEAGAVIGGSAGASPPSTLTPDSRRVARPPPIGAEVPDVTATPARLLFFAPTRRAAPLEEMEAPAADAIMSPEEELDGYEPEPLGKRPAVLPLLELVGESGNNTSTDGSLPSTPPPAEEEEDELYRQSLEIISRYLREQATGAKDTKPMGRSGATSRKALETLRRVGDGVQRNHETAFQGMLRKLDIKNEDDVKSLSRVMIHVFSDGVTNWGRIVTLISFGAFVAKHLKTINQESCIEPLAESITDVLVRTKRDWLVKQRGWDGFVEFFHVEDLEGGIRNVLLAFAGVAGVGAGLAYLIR

Row | Structure (SMILES) | koff [1] [s⁻¹] | koff [2] [s⁻¹]
1 | Cc1c(-c2cccc3c(CCCOc4cccc5ccccc45)c(C(=O)O)n(C)c23)c(COc2ccc(B(O)O)c(C=O)c2)nn1C [7-(3-((4-Borono-3-formylphenoxy)methyl)-1,5-dimethyl-1Hpyrazol-4-yl)-1-methyl-3-(3-(naphthalen-1-yloxy)propyl)-1H-indole-2-carboxylic acid, 11] | 0.01 | 0.13
2 | Cc1c(-c2cccc3c(CCCOc4cccc5ccccc45)c(C(=O)O)[nH]c23)c(COc2ccc(B(O)O)c(C=O)c2)nn1C [7-(3-((4-Borono-3-formylphenoxy)methyl)-1,5-dimethyl-1Hpyrazol-4-yl)-3-(3-(naphthalen-1-yloxy)propyl)-1H-indole-2-carboxylic acid, 5] | 0.018 | 0.14
